Results: patent US11000033B2, “Ketone or oxime compound, and herbicide” (NISSAN CHEMICAL CORPORATION, priority 2014, dated 2021)

Tests used:
Assay type in all cases: in vivo
[1] = test system: beet; assay: Test Example 4: effect on crop by soil treatment (symbol f); conditions: application herbicide amount 320 g/ha
Procedure, shortened: (§1)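 Crop seed is sown in spots together with several weed species in a box of sterilized diluvial soil. It is covered by about 1.5 cm of soil and kept in a greenhouse held between 25° C. and 30° C.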

[2] = test system: Amaranthus retroflexus; assay: Test Example 4: herbicidal effect by soil treatment (symbol N); conditions: application herbicide amount 320 g/ha
Procedure, shortened: (§2)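 Seeds were sown in sterilized diluvial soil, covered with about 1.5 cm of soil, and the soil surface was sprayed with a water-diluted emulsion of the compound at a predetermined rate. Plants grew in a greenhouse at 25° C. to 30° C.; effects were scored visually 3 weeks after application.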

[3] = test system: Abutilon theophrasti; assay: Test Example 4: herbicidal effect by soil treatment (symbol M); conditions: application herbicide amount 320 g/ha
Procedure, shortened: as §2

[4] = test system: corn; assay: Test Example 4: effect on crop by soil treatment (symbol c); conditions: application herbicide amount 320 g/ha
Procedure, shortened: as §1

[5] = test system: Lolium multiflorum Lam.; assay: Test Example 5: herbicidal effect by foliage application, plastic box (symbol K); conditions: 320 g/ha, 3 weeks after application
Procedure, shortened: (§3)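 Emulsion formulation, diluted with water to the intended rate, was applied uniformly to leaves by small sprayer. Recipients were 14-day greenhouse-grown seedlings (25° C. to 30° C.). Assessment followed at 3 weeks.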

[6] = test system: soybean; assay: Test Example 4: effect on crop by soil treatment (symbol d); conditions: application herbicide amount 320 g/ha
Procedure, shortened: as §1

[7] = test system: Digitaria ciliaris; assay: Test Example 4: herbicidal effect by soil treatment (symbol F); conditions: application herbicide amount 320 g/ha
Procedure, shortened: as §2

[8] = test system: Echinochloa oryzacola Vasing.; assay: Test Example 2: herbicidal activity, application during weed generation in submerged conditions (symbol A); conditions: Table 23; application herbicide amount 320 g/ha; grade 0-5 by criteria of Test Example 1
Procedure, shortened: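 Paddy pot test, submerged (4 cm water), alluvial soil, mixed sowing; greenhouse 25–30° C. Emulsion formulation diluted to predetermined rate, applied onto floodwater at 1–2 leaf stage. Visual herbicidal rating at 3 wk post-treatment.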

[9] = test system: Galium spurium; assay: Test Example 5: herbicidal effect by foliage application, plastic box (symbol Q); conditions: 320 g/ha, 3 weeks after application
Procedure, shortened: as §3

[10] = test system: Leptochloa chinensis; assay: Test Example 3: herbicidal effect by foliage application, Wagner pot (symbol D); conditions: application herbicide amount 320 g/ha
Procedure, shortened: (§4)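 Foliar spray of water-diluted emulsion formulation at a predetermined herbicide amount onto 14-day-old plants in flooded alluvial soil (water depth 0.1–0.5 cm), greenhouse 25–30 °C; rice sown alongside. Scored 3 wk post-application on set criteria.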

[11] = test system: Monochoria vaginalis; assay: Test Example 1: herbicidal activity, application before weed generation in submerged conditions (symbol C); conditions: application herbicide amount 320 g/ha
Procedure, shortened: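 Mixed weed seeds sown in alluvial soil under 4 cm of water, with rice seedlings at the 2.5-leaf stage added. Same-day treatment: emulsion diluted to a set herbicide amount onto the water. Three weeks at 25–30 °C, then graded on a six-step scale.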

[12] = test system: Cyperus difformis; assay: Test Example 3: herbicidal effect by foliage application, Wagner pot (symbol E); conditions: application herbicide amount 320 g/ha
Procedure, shortened: as §4

Row | SMILES | Effect on crop grade, f: beet [1] | Herbicidal effect grade, N: Amaranthus retroflexus [2] | Herbicidal effect grade, M: Abutilon theophrasti [3] | Effect on crop grade, c: corn [4] | K: Lolium multiflorum Lam., herbicidal effect grade [5] | Effect on crop grade, d: soybean [6] | Herbicidal effect grade, F: Digitaria ciliaris [7] | Herbicidal effect grade, A: Echinochloa oryzacola Vasing. [8] | Q: Galium spurium, herbicidal effect grade [9] | D (Leptochloa chinensis) herbicidal effect grade ([10]; Table 24) | N (Amaranthus retroflexus) herbicidal effect grade [2] | M (Abutilon theophrasti) herbicidal effect grade [3] | c (corn) effect on crop grade [4] | Herbicidal effect grade, C: Monochoria vaginalis [11] | d (soybean) effect on crop grade [6] | herbicidal effect on E, grade 0-5 [12] | F (Digitaria ciliaris) herbicidal effect grade [7] | herbicidal effect on D (Leptochloa chinensis), grade 0-5 [10] | f (beet) effect on crop grade [1]
1 | CC(CC1CC(O)=C(c2c(C)cc(Br)cc2C)C1=O)=NOCC(=O)N(C)C (mixture of isomers) [9-029] | 0 (Herbicidal ratio of 5% or lower (almost no effect)) | 0 (Herbicidal ratio of 5% or lower (almost no effect)) | 0 (Herbicidal ratio of 5% or lower (almost no effect)) | 0 (Herbicidal ratio of 5% or lower (almost no effect)) | 5 (Herbicidal ratio of 90% or more (almost completely withered)) | 0 (Herbicidal ratio of 5% or lower (almost no effect)) | 3 (Herbicidal ratio of 40% or higher and lower than 70%) | 0 (Herbicidal ratio of 5% or lower (almost no effect)) | 0 (Herbicidal ratio of 5% or lower (almost no effect)) | 4 (Herbicidal ratio of 70% or higher and lower than 90%) |  |  |  |  |  |  |  |  | 
2 | CON=CC(C)(C)C1CC(O)=C(c2c(C)cc(C)cc2C)C1=O (centres unmarked) [1-030] |  |  |  |  | 5 (Herbicidal ratio of 90% or more (almost completely withered)) |  |  | 2 (Herbicidal ratio of 20% or higher and lower than 40%) | 0 (Herbicidal ratio of 5% or lower (almost no effect)) |  | 0 (Herbicidal ratio of 5% or lower (almost no effect)) | 0 (Herbicidal ratio of 5% or lower (almost no effect)) | 0 (Herbicidal ratio of 5% or lower (almost no effect)) | 0 (Herbicidal ratio of 5% or lower (almost no effect)) | 0 (Herbicidal ratio of 5% or lower (almost no effect)) | 3 (Herbicidal ratio of 40% or higher and lower than 70%) | 3 (Herbicidal ratio of 40% or higher and lower than 70%) | 5 (Herbicidal ratio of 90% or more (almost completely withered)) | 
3 | COCCON=C(C)CC1CC(O)=C(c2c(C)cc(C)cc2C)C1=O (centres unmarked) [1-041] |  |  |  |  | 5 (Herbicidal ratio of 90% or more (almost completely withered)) |  |  | 5 (Herbicidal ratio of 90% or more (almost completely withered)) | 3 (Herbicidal ratio of 40% or higher and lower than 70%) |  | 3 (Herbicidal ratio of 40% or higher and lower than 70%) | 3 (Herbicidal ratio of 40% or higher and lower than 70%) | 4 (Herbicidal ratio of 70% or higher and lower than 90%) | 0 (Herbicidal ratio of 5% or lower (almost no effect)) | 1 (Herbicidal ratio of 5% or higher and lower than 20%) | 5 (Herbicidal ratio of 90% or more (almost completely withered)) | 5 (Herbicidal ratio of 90% or more (almost completely withered)) | 5 (Herbicidal ratio of 90% or more (almost completely withered)) | 
4 | CON=C(C)CC1CC(OC(=O)COc2ccc(Cl)cc2)=C(c2c(C)cc(C)cc2C)C1=O (centres unmarked) [1-044] |  |  |  |  | 5 (Herbicidal ratio of 90% or more (almost completely withered)) |  |  | 5 (Herbicidal ratio of 90% or more (almost completely withered)) | 0 (Herbicidal ratio of 5% or lower (almost no effect)) |  | 4 (Herbicidal ratio of 70% or higher and lower than 90%) | 5 (Herbicidal ratio of 90% or more (almost completely withered)) | 4 (Herbicidal ratio of 70% or higher and lower than 90%) | 4 (Herbicidal ratio of 70% or higher and lower than 90%) | 0 (Herbicidal ratio of 5% or lower (almost no effect)) | 5 (Herbicidal ratio of 90% or more (almost completely withered)) | 5 (Herbicidal ratio of 90% or more (almost completely withered)) | 5 (Herbicidal ratio of 90% or more (almost completely withered)) | 
5 | CON=C(C)CC1CC(OC(=O)COc2ccccc2[N+](=O)[O-])=C(c2c(C)cc(C)cc2C)C1=O (centres unmarked) [1-071] |  |  |  |  | 3 (Herbicidal ratio of 40% or higher and lower than 70%) |  |  | 5 (Herbicidal ratio of 90% or more (almost completely withered)) | 2 (Herbicidal ratio of 20% or higher and lower than 40%) |  | 4 (Herbicidal ratio of 70% or higher and lower than 90%) | 4 (Herbicidal ratio of 70% or higher and lower than 90%) | 4 (Herbicidal ratio of 70% or higher and lower than 90%) | 0 (Herbicidal ratio of 5% or lower (almost no effect)) | 0 (Herbicidal ratio of 5% or lower (almost no effect)) | 5 (Herbicidal ratio of 90% or more (almost completely withered)) | 5 (Herbicidal ratio of 90% or more (almost completely withered)) | 5 (Herbicidal ratio of 90% or more (almost completely withered)) | 
6 | CON=C(C)CC1CC(OC(=O)COc2ccc(C)cc2)=C(c2c(C)cc(C)cc2C)C1=O (centres unmarked) [1-072] |  |  |  |  | 5 (Herbicidal ratio of 90% or more (almost completely withered)) |  |  | 5 (Herbicidal ratio of 90% or more (almost completely withered)) | 2 (Herbicidal ratio of 20% or higher and lower than 40%) |  | 5 (Herbicidal ratio of 90% or more (almost completely withered)) | 4 (Herbicidal ratio of 70% or higher and lower than 90%) | 5 (Herbicidal ratio of 90% or more (almost completely withered)) |  | 0 (Herbicidal ratio of 5% or lower (almost no effect)) | 4 (Herbicidal ratio of 70% or higher and lower than 90%) | 5 (Herbicidal ratio of 90% or more (almost completely withered)) | 5 (Herbicidal ratio of 90% or more (almost completely withered)) | 0 (Herbicidal ratio of 5% or lower (almost no effect))
